Converted amounts (≈) assume the structure as drawn.
Tests used:
[1] = format: physicochemical
Source text: Both polyether sheath reservoirs (R1 & R2) released DPV faster than polycarbonate sheath reservoirs (R3 & R4). […] Thus, with DPV loaded at 1 wt % which is below the saturation solubility, these reservoirs contain a nonconstant activity source. Pursuant to the behavior of reservoirs with a nonconstant activity source, these reservoirs released drug following first-order release kinetics. Despite this expectation, drug release from all four reservoir devices was described slightly better by a square-root of time dependence.

[2] = physchem; format: physicochemical; conditions: 37 °C, aqueous with cosolvent or surfactant or cyclodextrin, thermodynamic from solid
Source text: FIGS. 6A-6C are graphs showing differential dapivirine release driven by polymer crystallinity and water penetration, in accordance with the present technology.

[3] = In vitro release of 1% dapivirine from ethylene-vinyl acetate polymers; format: physicochemical; conditions: 1% DPV in EVA, within 720 hours
Source text: Ethylene-vinyl acetate polymers (EVA) were also investigated for the use in the intrauterine systems described herein. FIGS. 19A-19B are graphs showing release for dapirivine (DPV) in ethylene-vinyl acetate polymers (EVAs), in accordance with the present technology.

[4] = cited from earlier work
[5] = In vitro drug release from TPU matrix delivery system prototypes; format: physicochemical; conditions: for Predicted T50%: from best-fit release model
Description: Films were cut into disks with a 1-inch diameter die punch; disks were stacked and placed between two pieces of aluminum foil and compressed under a metal weight on a 120° C. dry bath. Thickness was monitored frequently until it measured 3.5 mm with digital calipers calibrated to 0.01 mm. Devices were cut from thick films using a custom rectangular 3.5 mm×13.3 mm die punch.
All release tests were performed in sink conditions in PBS supplemented with 2% w/v Cremophor® A25/Emulgin® B25. For the first 7-days of drug release testing, 1 mL samples were taken daily; following 7 days, samples were taken every 3-4 days. At all timepoints, bottles were drained and replaced with fresh media following sampling.
A qualification for selecting an optimal TPU for DPV delivery in this application is the time to achieve 50% cumulative release of drug. This is based on the standard use time of hormonal IUDs, which in practice are removed once about half of the initial load of drug is depleted from the device. Here, this standard was used as a benchmark to evaluate the sustained release properties of candidate delivery system designs. […] The fit of first-order release kinetics to the data was assessed. Equations 1 and 2 describe drug release from a system where dissolution is dependent on a concentration gradient.
Where k is the first order rate constant, Ct is the concentration of drug in solution at time t and C0 is the initial concentration of drug.
Where Q is the amount of drug release in time t and kh is the Higuchi release constant.
Based on the best-fit square-root of time relation, T50% was calculated for each TPU. […] Korsmeyer and Peppas provided a method for understanding drug release mechanisms of swelling and non-swelling polymeric systems, given by Equation 4: […]
Where Mt/M∝ is the fraction of drug released at time t, K is the rate constant, and n is the release exponent.

[6] = test system: HIV-1; conditions: cited from earlier work
[7] = format: in vivo; conditions: baboon, about one month of intrauterine instillation
Source text: Animals were monitored for signs of discomfort including decreased appetite, lethargy, and hunched posture. Tissue biopsies for histological analysis were fixed in 4% paraformaldehyde, dehydrated in alcohol, and embedded in paraffin. Cross sectional samples (5 μm) were taken and stained with hematoxylin and eosin (H&E) stain.
Vaginal tissue biopsies taken pre-insertion and 28-days post-insertion show characteristic features of healthy a vaginal epithelium, including a multilayered stratified squamous epithelium consisting of enucleated cells, a densely nucleated basal cell layer, and an inconspicuous lamina propria. Vaginal tissue biopsied 28-days post insertion has an intact stratified squamous epithelium that measures approximately 200 μm thick. Both pre-insertion and 28-days post-insertion cervical biopsies contain regions of a single columnar epithelium, while the underlying cervical stroma is composed of densely vascularized, fibromuscular tissue. The 28-day post-insertion cervical biopsy contains a thick stratus corneum of the exocervix; the epithelium overlays a prominent lymphoid aggregate, a feature of mucosa-associated lymphoid tissue (MALT) in the type I mucosa of the endocervix. Some cellular atypia is notable as a few epithelial cells display irregular nuclear membranes and perinuclear halos. […]

Cc1cc(C)c(Nc2ccnc(Nc3ccc(C#N)cc3)n2)c(C)c1 [DPV, dapivirine]
saturation solubility of DPV in a PY-PT43DE20 core [1]: 5.46±0.93 wt % | solubility [2]: 164 ± 9.4 µg/mL (≈ 497 µM) | cumulative release of loaded DPV [3]: about 80% | Cmax ([4]; in vivo): 0.355 ng/mL | treatment-emergent adverse events ([4]; in vivo): no treatment-emergent adverse events were observed | plasma concentration required to reduce viral load ([4]; oral DPV administration): 100 to 200 ng/mL | DPV dose released per day ([5]; 1 wt % DPV, all four TPUs, within target range): 10 to 50 µg/day | Actual T50% ([5]; 1 wt % loading, TPU1 matrix): 12 days | First-Order: k ([5]; 1 wt % loading, TPU1 matrix): 0.002, h^−1 | Higuchi: kH ([5]; 1 wt % loading, TPU1 matrix): 0.029, %/h^1/2 | Korsmeyer-Peppas Constant: n ([5]; 1 wt % loading, TPU1 matrix): 0.525, | Predicted T50% ([5]; 1 wt % loading, TPU1 matrix): 12 days | Actual T50% ([5]; 1 wt % loading, TPU2 matrix): 12 days | First-Order: k ([5]; 1 wt % loading, TPU2 matrix): 0.002, h^−1 | Higuchi: kH ([5]; 1 wt % loading, TPU2 matrix): 0.027, %/h^1/2 | Korsmeyer-Peppas Constant: n ([5]; 1 wt % loading, TPU2 matrix): 0.549, | Predicted T50% ([5]; 1 wt % loading, TPU2 matrix): 13.5 days | Actual T50% ([5]; 1 wt % loading, TPU3 matrix): 7 days | First-Order: k ([5]; 1 wt % loading, TPU3 matrix): 0.004, h^−1 | Higuchi: kH ([5]; 1 wt % loading, TPU3 matrix): 0.038, %/h^1/2 | Korsmeyer-Peppas Constant: n ([5]; 1 wt % loading, TPU3 matrix): 0.662, | Predicted T50% ([5]; 1 wt % loading, TPU3 matrix): 7 days | First-Order: k ([5]; 1 wt % loading, TPU4 matrix): 0.0007, h^−1 | Higuchi: kH ([5]; 1 wt % loading, TPU4 matrix): 0.017, %/h^1/2 | Korsmeyer-Peppas Constant: n ([5]; 1 wt % loading, TPU4 matrix): 0.614, | Predicted T50% ([5]; 1 wt % loading, TPU4 matrix): 36 days | cumulative release of encapsulated drug ([5]; 1 wt %, TPU3 matrix, by 30 days / one month): approximately 95% | First-Order: k ([5]; 16.6 wt % loading, TPU4 matrix): 0.0005 h⁻¹ | Higuchi: kH ([5]; 16.6 wt % loading, TPU4 matrix): 0.014, %/h^1/2 | Predicted T50% ([5]; 16.6 wt % loading, TPU4 matrix): 53.5 days | cumulative release of loaded drug ([5]; 16.6 wt %, TPU4 matrix, after 30 days): approximately 33.5% | release rate ([5]; 16.6 wt %, TPU4 matrix, final rate at 30 days, per each ⅓ segment of the device): approximately 62.56 μg/day | inhibition of provirus formation ([6]; at 1 nM (0.33 ng/mL)): 99% | infection prevented (dissemination of HIV-1 by CD4+ dendritic cells) ([6]; at 10 nM (3.3 ng/mL)): 90% | IC90 in cervicovaginal tissue ([6]; concentration with which tissue explants were treated): 3.3 ng/mL (≈ 0.01 µM) | lowest concentration inhibiting productive infection of ectocervical tissue ([6]; ex vivo viral inhibition model): 0.1 nM | tolerability / histological findings [7]: likely safe and well-tolerated in baboons
